Measured values taken from ChEMBL document CHEMBL1201862, “PubChem BioAssay data set” (2004).
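Grown in 96-well plates, cells were treated for 48 hours with each compound at five concentrations. Insufficient inhibition: endpoint recorded as highest concentration tested. At the GI50, growth is halved.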 Calls of active or inactive are those of the source. Cut-off read from the data, not from the text of the source: active = GI50 up to about 1.1 µM and inactive = higher.

Columns and labels:
Assay in all cases: inhibition of tumour cell growth, NCI panel, 48 h
Hs-578T = system: Hs-578T
A549 = system: A549
NCI/ADR-RES = system: NCI/ADR-RES
SK-OV-3 = system: SK-OV-3
U-251 = system: U-251
UO-31 = system: UO-31
RXF 393 = system: RXF 393
MDA-N = system: MDA-N
HCT-15 = system: HCT-15
HOP-62 = system: HOP-62
Malme-3M = system: Malme-3M
SK-MEL-28 = system: SK-MEL-28
MOLT-4 = system: MOLT-4
SR = system: SR
HL-60 = system: HL-60
LOX IMVI = system: LOX IMVI
T47D = system: T47D
MCF7 = system: MCF7
OVCAR-8 = system: OVCAR-8

| Structure (SMILES) | GI50 (Hs-578T) | GI50 (A549) | GI50 (NCI/ADR-RES) | GI50 (SK-OV-3) | GI50 (U-251) | GI50 (UO-31) | GI50 (RXF 393) | GI50 (MDA-N) | GI50 (HCT-15) | GI50 (HOP-62) | GI50 (Malme-3M) | GI50 (SK-MEL-28) | GI50 (MOLT-4) | GI50 (SR) | GI50 (HL-60) | GI50 (LOX IMVI) | GI50 (T47D) | GI50 (MCF7) | GI50 (OVCAR-8) |
| --- | --- | --- | --- | --- | --- | --- | --- | --- | --- | --- | --- | --- | --- | --- | --- | --- | --- | --- | --- |
| CCOC(=S)SCC(=O)O | > 100 µM (inactive) | > 100 µM (inactive) | > 100 µM (inactive) | > 100 µM (inactive) | > 100 µM (inactive) | > 100 µM (inactive) | > 100 µM (inactive) | > 100 µM (inactive) | > 100 µM | > 100 µM (inactive) | > 100 µM (inactive) | > 100 µM (inactive) | > 100 µM (inactive) | > 100 µM (inactive) | 2.01 µM (inactive) | > 100 µM (inactive) | > 100 µM (inactive) | > 100 µM (inactive) | > 100 µM (inactive) |
| COCOc1c(C(OCOC)c2cnc(Sc3ccccc3)n2C)ccc(OC)c1OC (stereo unspecified) | 94.4 µM (inactive) | > 100 µM (inactive) | 94.4 µM (inactive) | > 100 µM (inactive) | > 100 µM (inactive) | 73.6 µM (inactive) | 83.4 µM (inactive) | > 100 µM (inactive) | > 100 µM | > 100 µM (inactive) | > 100 µM (inactive) | > 100 µM (inactive) | 87.1 µM (inactive) | 52.5 µM (inactive) | > 100 µM (inactive) | > 100 µM (inactive) | 82.2 µM (inactive) | > 100 µM (inactive) | > 100 µM (inactive) |
| O=[N+]([O-])c1ccc2[nH]c(=S)[nH]c(=S)c2c1 | > 100 µM (inactive) | > 100 µM (inactive) | > 100 µM (inactive) | > 100 µM (inactive) | > 100 µM (inactive) | > 100 µM (inactive) | > 100 µM (inactive) | > 100 µM (inactive) | > 100 µM | > 100 µM (inactive) | > 100 µM (inactive) | > 100 µM (inactive) | > 100 µM (inactive) | > 100 µM (inactive) | > 100 µM (inactive) | > 100 µM (inactive) | > 100 µM (inactive) | > 100 µM (inactive) | > 100 µM (inactive) |
| COC(=O)c1cccc(OC)c1C#Cc1c(OC)cccc1OC | > 100 µM (inactive) | > 100 µM (inactive) | > 100 µM (inactive) | > 100 µM (inactive) | > 100 µM (inactive) | > 100 µM (inactive) | > 100 µM (inactive) | 53.2 µM (inactive) | > 100 µM | > 100 µM (inactive) | > 100 µM (inactive) | > 100 µM (inactive) | > 100 µM (inactive) | > 100 µM (inactive) | > 100 µM (inactive) | > 100 µM (inactive) | 76.2 µM (inactive) | > 100 µM (inactive) | > 100 µM (inactive) |
| Cc1nc2sc3ccccc3n2c(=O)c1/N=N/c1ccc(Cl)cc1 | > 100 µM (inactive) | > 100 µM (inactive) | > 100 µM (inactive) | > 100 µM (inactive) | > 100 µM (inactive) | – | > 100 µM (inactive) | > 100 µM (inactive) | > 100 µM | > 100 µM (inactive) | > 100 µM (inactive) | > 100 µM (inactive) | > 100 µM (inactive) | > 100 µM (inactive) | > 100 µM (inactive) | > 100 µM (inactive) | > 100 µM (inactive) | > 100 µM (inactive) | > 100 µM (inactive) |
| CN(CCCNC(=O)c1nn(-c2ccc(Cl)cc2Cl)c2c1ccc1ccccc12)CCCNC(=O)c1nn(-c2ccc(Cl)cc2Cl)c2c1ccc1ccccc12 | 1.44 µM (inactive) | 1.63 µM (inactive) | 1.59 µM (inactive) | 2 µM (inactive) | 1.69 µM (inactive) | – | 1.66 µM (inactive) | 1.73 µM (inactive) | 1.7 µM | 1.77 µM (inactive) | 1.95 µM (inactive) | 1.66 µM (inactive) | 1.61 µM (inactive) | 0.278 µM (active) | 0.322 µM (active) | 1.69 µM (inactive) | 1.81 µM (inactive) | 1.56 µM (inactive) | 1.82 µM (inactive) |
| Cc1nc2c3c(ncn2n1)Oc1c(c(-c2ccccc2)nn1-c1ccccc1)C3c1ccc(Cl)cc1 (stereo unspecified) | 23.2 µM (inactive) | > 100 µM (inactive) | > 100 µM (inactive) | 43.3 µM (inactive) | 53.6 µM (inactive) | > 100 µM (inactive) | 72.3 µM (inactive) | > 100 µM (inactive) | > 100 µM | 75.7 µM (inactive) | 46.1 µM (inactive) | > 100 µM (inactive) | > 100 µM (inactive) | 45.1 µM (inactive) | > 10 µM (inactive) | > 100 µM (inactive) | > 100 µM (inactive) | > 100 µM (inactive) | 56.9 µM (inactive) |
| CCOC(=O)Cc1ccc(Nc2nc3cc(F)c(F)cc3nc2C(=O)OCC)cc1 | 64.7 µM (inactive) | 74 µM (inactive) | 43.9 µM (inactive) | > 100 µM (inactive) | 28.9 µM (inactive) | 1.52 µM (inactive) | 33.9 µM (inactive) | 45 µM (inactive) | 21.8 µM | > 100 µM (inactive) | > 100 µM (inactive) | 64 µM (inactive) | 44 µM (inactive) | 26.5 µM (inactive) | 39.3 µM (inactive) | 28.1 µM (inactive) | 35.1 µM (inactive) | 37.6 µM (inactive) | 29.2 µM (inactive) |
| COC(=O)/C=C/[C@H]1[C@H](C)N1S(=O)(=O)c1ccc(C)cc1 (stereo partly specified) | > 100 µM (inactive) | > 100 µM (inactive) | > 100 µM (inactive) | > 100 µM (inactive) | > 100 µM (inactive) | – | > 100 µM (inactive) | > 100 µM (inactive) | > 100 µM | > 100 µM (inactive) | 50.2 µM (inactive) | > 100 µM (inactive) | 70.5 µM (inactive) | 31.6 µM (inactive) | > 99.5 µM (inactive) | 61.7 µM (inactive) | > 100 µM (inactive) | 64.3 µM (inactive) | > 100 µM (inactive) |
| COc1cc2c(cc1OC)C(=O)/C(=C/c1ccc([N+](=O)[O-])cc1)CC2 | > 10 µM (inactive) | > 10 µM (inactive) | > 10 µM (inactive) | > 10 µM (inactive) | > 10 µM (inactive) | – | > 10 µM (inactive) | > 10 µM (inactive) | > 10 µM | > 10 µM (inactive) | > 10 µM (inactive) | > 10 µM (inactive) | > 10 µM (inactive) | > 10 µM (inactive) | > 10 µM (inactive) | > 10 µM (inactive) | > 10 µM (inactive) | > 10 µM (inactive) | > 10 µM (inactive) |
| COc1ccc(N(C(=O)Nc2ccc(Cl)c(Cl)c2)c2ccccc2)cc1 | > 10 µM (inactive) | > 10 µM (inactive) | > 10 µM (inactive) | > 10 µM (inactive) | > 10 µM (inactive) | > 10 µM (inactive) | > 10 µM (inactive) | > 10 µM (inactive) | > 10 µM | > 10 µM (inactive) | > 10 µM (inactive) | > 10 µM (inactive) | > 10 µM (inactive) | > 10 µM (inactive) | > 10 µM (inactive) | > 10 µM (inactive) | > 10 µM (inactive) | > 10 µM (inactive) | > 10 µM (inactive) |
| O=C1NC(Nc2ccccc2)=N/C1=C\c1c(Cl)cccc1Cl | 25.8 µM (inactive) | 18.2 µM (inactive) | 23.6 µM (inactive) | 21.6 µM (inactive) | 17.9 µM (inactive) | 4.42 µM (inactive) | 17.8 µM (inactive) | 19.8 µM (inactive) | 49.8 µM | 28.2 µM (inactive) | 22.7 µM (inactive) | 30.5 µM (inactive) | 20.7 µM (inactive) | 5.09 µM (inactive) | 3.32 µM (inactive) | 62.7 µM (inactive) | 30.8 µM (inactive) | 19.4 µM (inactive) | 19.1 µM (inactive) |
| CC1(CCCO)CCCCCC(C)(CCCO)C1=O (stereo unspecified) | > 100 µM (inactive) | > 100 µM (inactive) | > 100 µM (inactive) | > 100 µM (inactive) | > 100 µM (inactive) | > 100 µM (inactive) | > 100 µM (inactive) | > 100 µM (inactive) | > 100 µM | > 100 µM (inactive) | > 100 µM (inactive) | > 100 µM (inactive) | > 100 µM (inactive) | > 100 µM (inactive) | > 100 µM (inactive) | > 100 µM (inactive) | > 100 µM (inactive) | 70.6 µM (inactive) | > 100 µM (inactive) |
| C=C1C(=O)CCC1C(=O)O (stereo unspecified) | > 100 µM (inactive) | > 100 µM (inactive) | > 100 µM (inactive) | > 100 µM (inactive) | > 100 µM (inactive) | > 100 µM (inactive) | > 100 µM (inactive) | > 100 µM (inactive) | > 100 µM | > 100 µM (inactive) | > 100 µM (inactive) | > 100 µM (inactive) | > 100 µM (inactive) | > 100 µM (inactive) | > 100 µM (inactive) | > 100 µM (inactive) | > 100 µM (inactive) | > 100 µM (inactive) | > 100 µM (inactive) |
| C=CCSSCC=C | 27.9 µM (inactive) | > 83.8 µM (inactive) | 28.1 µM (inactive) | 90.4 µM (inactive) | 61.4 µM (inactive) | 32.9 µM (inactive) | 32.3 µM (inactive) | 19.8 µM (inactive) | 38.5 µM | > 71.9 µM (inactive) | 40.9 µM (inactive) | > 74.8 µM (inactive) | 1.8 µM (inactive) | 4.09 µM (inactive) | 3.49 µM (inactive) | 9.73 µM (inactive) | > 100 µM (inactive) | 30.3 µM (inactive) | 27.6 µM (inactive) |
